Test results taken from PMC10683472, “Deep Learning-Driven Library Design for the De Novo Discovery of Bioactive Thiopeptides” (ACS Central Science, 2023).
*1 amine or outer side, *2 acyl side, *3 side chain or, on linkers, in order; H or OH if unused. Where a SMILES comes first, the peptide text is derived from it. Bridges are numbered along the chain shown (N, C = ends). [ ]: non-standard residue; d: D form. X2 = C=C(N[*:2])c1nc(-c2nc(-c3nc(C(=O)OC)cs3)ccc2C(=O)[*:1])cs1; Nle = CCCC[C@H](N)C(=O)O; Dha = C=C(N)C(=O)O

Assays:
[1] = biological target: T1, TLR10 (Homo sapiens, UniProt Q9BXR5); assay: mRNA display affinity selection against TLR10, NGS abundance; assay type: binding; parameters: Chimera protein (extracellular domain, amino acid 20-576;); Fc (chimera); purchased R&D system #6619-TR-050; conditions: for rank in pulldown(–) / rank in pulldown(+): TLR10 selection, NGS abundance rank; for rank in pulldown(+): –: not found in the final pulldown(+) libraries at the sequenced depth
T1 sequence (Q9BXR5 20-576): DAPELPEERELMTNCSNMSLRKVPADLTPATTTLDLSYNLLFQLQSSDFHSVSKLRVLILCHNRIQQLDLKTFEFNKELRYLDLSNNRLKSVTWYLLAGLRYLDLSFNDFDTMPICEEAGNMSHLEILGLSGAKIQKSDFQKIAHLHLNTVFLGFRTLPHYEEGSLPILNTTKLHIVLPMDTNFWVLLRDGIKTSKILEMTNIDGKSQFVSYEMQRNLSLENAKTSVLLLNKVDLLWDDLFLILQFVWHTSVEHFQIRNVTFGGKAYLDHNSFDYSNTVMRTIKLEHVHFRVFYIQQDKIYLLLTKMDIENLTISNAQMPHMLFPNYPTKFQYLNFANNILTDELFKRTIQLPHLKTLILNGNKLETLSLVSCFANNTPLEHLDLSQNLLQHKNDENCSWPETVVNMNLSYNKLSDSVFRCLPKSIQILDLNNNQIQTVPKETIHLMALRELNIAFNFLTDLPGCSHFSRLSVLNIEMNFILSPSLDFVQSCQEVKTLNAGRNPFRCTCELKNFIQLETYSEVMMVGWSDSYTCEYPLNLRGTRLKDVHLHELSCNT

[2] = Serum stability assay; assay type: in vitro ADME; conditions: human serum, 37 °C, LC/MS; for half-life at 10 µM: pH 7.6, read-out: serum stability τ1/2 (converted)
Method: Next, we tested the metabolic stability of the discovered thiopeptides. The compounds were incubated in human serum at 37 °C in the presence of an internal control, and the amounts of the remaining analytes were quantified by LC/MS (Figures S27 and 28). […] At the other extreme, IR11 rapidly degraded in human serum with τ1/2 = 0.5 h. […]
Kinetic parameters and affinities of the […]
2.12. Thiopeptide metabolic stability experiments
The mixtures were stirred
well and transferred to a 37 °C thermostat. […]

[3] = biological target: T1, TLR10; assay: Single-round mRNA display binding assay (qPCR), TLR10; conditions: ratio of cDNA recoveries (qPCR), TLR10 pulldown over beads only, single-round selection
[4] = biological target: T2, Human TLR10 Fc Chimera protein (extracellular domain) (Homo sapiens, UniProt Q9BXR5); assay: Surface plasmon resonance binding to TLR10; conditions: SPR
T2 construct: Chimera protein (extracellular domain, amino acid 20-576;); Fc (chimera); purchased R&D system #6619-TR-050
T2 sequence (Q9BXR5 20-576): T1 sequence (Q9BXR5 20-576)
Method: Reagents were purchased from Nacalai Tesque, Wako Pure Chemical Industries, Sigma-Aldrich Japan, or TCI Chemicals and were used as received. […]
Anti-HA magnetic beads were from Pierce Thermo […]
2000c spectrophotometer (Thermo Scientific) equipped with a 5 mm pathlength quartz cuvette using extinction coefficient values calculated with ExPASy ProtParam tool (https://web.expasy.org/protparam). […]
Biochemical measurements (sections 2.10 – 2.14) were performed in triplicate or more. Most […]
determination of biophysical parameters involved cell assay (CP50 and IC50), reported are standard errors of the fit; otherwise, error bars are standard deviations. […]

[5] = TLR10 selection pulldown (-), Top100 selection hits, NGS

SMILES	fraction of the pulldown(−) population ([1]; TLR10 pulldown(−) selection, NGS) [%]	Library fraction [1, 5]	Raw reads [1, 5]	rank in pulldown(–) [1]	half-life at 10 µM [2] [h]	display P/N ratio [3]	koff [4] [s⁻¹]	kon [4] [M⁻¹ s⁻¹]	rank in pulldown(+) [1]	serum stability τ1/2 [2] [h]
C=C1NC(=O)[C@H](Cc2ccccc2)NC(=O)[C@H](C)NC(=O)[C@H](C(C)C)NC(=O)[C@H](CCCCN)NC(=O)[C@H](CCCNC(=N)N)NC(=O)[C@H](CCC(N)=O)NC(=O)[C@H](CC(C)C)NC(=O)[C@H](Cc2c[nH]c3ccccc23)NC(=O)[C@H](Cc2ccccc2)NC(=O)[C@H](CO)NC(=O)[C@H]([C@@H](C)CC)NC(=O)[C@H](CCCC(N)=O)NC(=O)[C@H](Cc2c[nH]c3ccccc23)NC(=O)c2ccc(-c3nc(C(=O)OC)cs3)nc2-c2csc1n2 [TL3] (HELM PEPTIDE1{W.[O=C([C@H](CCCC(=O)[*:3])N[*:1])[*:2]].I.S.F.W.L.Q.R.K.V.A.F}|PEPTIDE2{[am]}|CHEM1{[C=C(N[*:2])c1nc(-c2nc(-c3nc(C(=O)OC)cs3)ccc2C(=O)[*:1])cs1]}$PEPTIDE1,PEPTIDE2,2:R3-1:R1|PEPTIDE1,CHEM1,1:R1-1:R1|PEPTIDE1,CHEM1,13:R2-1:R2$$$V2.0; bridges inferred)	8.1	0.095	11388	2	3.2 ± 0.2	186	0.0056	6270	–	–
C=C1NC(=O)[C@H](Cc2ccccc2)NC(=O)[C@H](C)NC(=O)[C@H]([C@@H](C)CC)NC(=O)[C@H](CCCCN)NC(=O)[C@H](CC(N)=O)NC(=O)[C@H](CCC(N)=O)NC(=O)[C@H](CC(N)=O)NC(=O)[C@H]([C@@H](C)O)NC(=O)[C@H](Cc2ccccc2)NC(=O)[C@H](CCCNC(=N)N)NC(=O)[C@H]([C@@H](C)CC)NC(=O)[C@H]([C@@H](C)O)NC(=O)[C@H](Cc2c[nH]c3ccccc23)NC(=O)c2ccc(-c3nc(C(=O)OC)cs3)nc2-c2csc1n2 [TL4] (HELM PEPTIDE1{W.T.I.R.F.T.N.Q.N.K.I.A.F}|CHEM1{[C=C(N[*:2])c1nc(-c2nc(-c3nc(C(=O)OC)cs3)ccc2C(=O)[*:1])cs1]}$PEPTIDE1,CHEM1,1:R1-1:R1|PEPTIDE1,CHEM1,13:R2-1:R2$$$V2.0; bridges inferred)	–	–	–	3	4.4 ± 0.3	975	0.033	47500	7	–
C=C1NC(=O)[C@H]([C@@H](C)CC)NC(=O)[C@H](C)NC(=O)[C@H](CC(C)C)NC(=O)[C@H](CCCCN)NC(=O)[C@H](CO)NC(=O)[C@H](CCC(N)=O)NC(=O)[C@H](CC(C)C)NC(=O)[C@H](CCCNC(=N)N)NC(=O)[C@H](Cc2ccccc2)NC(=O)[C@H](CC(C)C)NC(=O)[C@H](CCCC)NC(=O)[C@H]([C@@H](C)O)NC(=O)[C@H](Cc2c[nH]c3ccccc23)NC(=O)c2ccc(-c3nc(C(=O)OC)cs3)nc2-c2csc1n2 [TL6] (HELM PEPTIDE1{W.T.[Nle].L.F.R.L.Q.S.K.L.A.I}|CHEM1{[C=C(N[*:2])c1nc(-c2nc(-c3nc(C(=O)OC)cs3)ccc2C(=O)[*:1])cs1]}$PEPTIDE1,CHEM1,1:R1-1:R1|PEPTIDE1,CHEM1,13:R2-1:R2$$$V2.0)	–	–	–	12	8.2 ± 1.2	268	0.0048	7650	–	–
C=C1NC(=O)CNC(=O)[C@H]([C@@H](C)CC)NC(=O)[C@H]([C@@H](C)CC)NC(=O)CNC(=O)[C@H](CCC(N)=O)NC(=O)CNC(=O)[C@H](CCCC(N)=O)NC(=O)[C@H](Cc2c[nH]c3ccccc23)NC(=O)[C@H](C(C)C)NC(=O)[C@H]([C@@H](C)CC)NC(=O)[C@H](CC(N)=O)NC(=O)[C@H](CO)NC(=O)[C@H](Cc2c[nH]c3ccccc23)NC(=O)c2ccc(-c3nc(C(=O)OC)cs3)nc2-c2csc1n2 [TL10] (HELM PEPTIDE1{W.S.N.I.V.W.[O=C([C@H](CCCC(=O)[*:3])N[*:1])[*:2]].G.Q.G.I.I.G}|PEPTIDE2{[am]}|CHEM1{[C=C(N[*:2])c1nc(-c2nc(-c3nc(C(=O)OC)cs3)ccc2C(=O)[*:1])cs1]}$PEPTIDE1,PEPTIDE2,7:R3-1:R1|PEPTIDE1,CHEM1,1:R1-1:R1|PEPTIDE1,CHEM1,13:R2-1:R2$$$V2.0; bridges inferred)	–	–	–	4	4.7 ± 0.3	352	–	–	1	–
C=C1NC(=O)[C@H](CCCC(N)=O)NC(=O)[C@H](Cc2ccc(O)cc2)NC(=O)[C@H](CC(C)C)NC(=O)[C@H](CCCC)NC(=O)[C@H](CC(N)=O)NC(=O)[C@H]([C@@H](C)O)NC(=O)[C@H](CCC(N)=O)NC(=O)[C@H](CCCCN)NC(=O)[C@H]([C@@H](C)CC)NC(=O)[C@H](CC(C)C)NC(=O)[C@H](CC(C)C)NC(=O)[C@H](C)NC(=O)[C@H](Cc2c[nH]c3ccccc23)NC(=O)c2ccc(-c3nc(C(=O)OC)cs3)nc2-c2csc1n2 [TL17] (HELM PEPTIDE1{W.A.L.L.I.K.Q.T.N.[Nle].L.Y.[O=C([C@H](CCCC(=O)[*:3])N[*:1])[*:2]]}|PEPTIDE2{[am]}|CHEM1{[C=C(N[*:2])c1nc(-c2nc(-c3nc(C(=O)OC)cs3)ccc2C(=O)[*:1])cs1]}$PEPTIDE1,PEPTIDE2,13:R3-1:R1|PEPTIDE1,CHEM1,1:R1-1:R1|PEPTIDE1,CHEM1,13:R2-1:R2$$$V2.0; bridges inferred)	–	–	–	9	6 ± 0.1	737	0.0067	18900	10	–
C=C1NC(=O)[C@H]([C@@H](C)CC)NC(=O)[C@H](CO)NC(=O)[C@H](CC(=O)O)NC(=O)[C@H](CCCNC(=N)N)NC(=O)[C@H](C)NC(=O)[C@H](CCCC)NC(=O)C(=C)NC(=O)CNC(=O)[C@@H]2CCCN2C(=O)[C@H](Cc2c[nH]c3ccccc23)NC(=O)c2ccc(-c3nc(C(=O)OC)cs3)nc2-c2csc(n2)C(=C)NC1=O [TL18] (WPG[Dha][Nle]ARDSI[Dha]; linker N-C via X2)	–	–	–	10	2.5 ± 0.1	380	–	–	13	–
C=C1NC(=O)[C@H](CCCCN)NC(=O)[C@H]([C@@H](C)CC)NC(=O)[C@H](CCCC)NC(=O)[C@H](C(C)C)NC(=O)[C@H](CCCNC(=N)N)NC(=O)CNC(=O)[C@H]([C@@H](C)CC)NC(=O)[C@H](Cc2c[nH]c3ccccc23)NC(=O)c2ccc(-c3nc(C(=O)OC)cs3)nc2-c2csc(n2)C(=C)NC(=O)c2coc1n2 [TL19] (HELM PEPTIDE1{W.I.G.R.V.[Nle].I.K.[C=C(N[*:1])c1nc(C(=O)[*:2])co1]}|CHEM1{[C=C(N[*:2])c1nc(-c2nc(-c3nc(C(=O)OC)cs3)ccc2C(=O)[*:1])cs1]}$PEPTIDE1,CHEM1,1:R1-1:R1|PEPTIDE1,CHEM1,9:R2-1:R2$$$V2.0; bridges inferred)	–	–	–	22	7.4 ± 1.5	263	0.0032	5540	16	–
C=C1NC(=O)[C@H](Cc2c[nH]cn2)NC(=O)[C@H]([C@@H](C)CC)NC(=O)[C@H](C(C)C)NC(=O)[C@H](C(C)C)NC(=O)[C@H](CC(N)=O)NC(=O)[C@H](C(C)C)NC(=O)[C@H](CCCNC(=N)N)NC(=O)[C@H](CO)NC(=O)[C@H](CC(C)C)NC(=O)[C@H](CCC(=O)O)NC(=O)[C@H](CC(C)C)NC(=O)[C@H](CO)NC(=O)[C@H](Cc2c[nH]c3ccccc23)NC(=O)c2ccc(-c3nc(C(=O)OC)cs3)nc2-c2csc1n2 [TL20] (HELM PEPTIDE1{W.S.L.E.L.S.R.V.N.V.V.I.H}|CHEM1{[C=C(N[*:2])c1nc(-c2nc(-c3nc(C(=O)OC)cs3)ccc2C(=O)[*:1])cs1]}$PEPTIDE1,CHEM1,1:R1-1:R1|PEPTIDE1,CHEM1,13:R2-1:R2$$$V2.0; bridges inferred)	–	–	–	52	38.2 ± 6	286	0.0078	25500	–	38
